One test has as its target T1, mTORC2 (Homo sapiens, UniProt P42345).
T1 construct: the following experiments were conducted in HeLa cells; endogenous in cells; host or cells: HeLa
The test is described as follows: mTORC2 inhibitory activity in HeLa cells (Akt Ser473 phosphorylation, Western blot). Type of test: cell-based. As to conditions: for selective inhibition of mTORC2: 40 μM, versus mTORC1; for selective inhibition of mTORC2 / remaining activity at 40 µM: 9 hours; for remaining activity at 40 µM: read-out: pSer473-AKT/AKT (% control). An outline of the steps: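 HeLa cells treated with compounds at 40 μM for 9 hours, then lysed and analysed by Western blot with chemiluminescent detection. Phospho-Akt Ser473 signal normalised to total Akt and expressed as percent of DMSO vehicle control.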

In the next test the target is T2, mTORC1 (Homo sapiens, UniProt P42345).
T2 construct: the following experiments were conducted in HeLa cells; endogenous in cells; host or cells: HeLa
The test is described as follows: mTORC1 inhibitory activity in HeLa cells (p70S6K Thr389 phosphorylation, Western blot). Type of test: cell-based. As to conditions: 9 hours; for remaining activity at 40 µM: read-out: pThr389-S6K/S6K (% control). The procedure, abridged:
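HeLa cells treated with compounds at 40 μM for 9 hours, lysed in RIPA, and equal protein analysed by Western blot. Phospho-p70S6K (Thr389) signal normalized to total p70S6K and expressed as percent of DMSO vehicle control.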

The next test has as its system LC3-II. The test is described as follows: LC3-II formation as indicator of autophagy in HeLa cells (Western blot). Type of test: cell-based, human. As to conditions: 9 hours; for activity at 40 µM: Homo sapiens, read-out: LC3-II (% control). The procedure, abridged: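 HeLa cells were treated with compounds at 40 μM for 9 h, then lysed in RIPA buffer and analysed by Western blot with chemiluminescent detection. LC3-II signal normalized to pan-Akt and expressed as percent of the DMSO vehicle control.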
A general note: A western blot detects proteins with antibodies after separation by electrophoresis.

For test [1], the target named is T3, mTOR(CD) protein and mLST8 protein (Homo sapiens, UniProt P42345+Q9BVC4).
T3 construct: mTOR C-terminal domain (mTOR(CD), a.a. 2179-2549); made in house; host or cells: E. coli (mTOR(CD)); insect Sf9 cells (mLST8, used as a crude extract)
The test is described as follows: mTOR(CD)-mLST8 binding assay (co-precipitation, Western blot). As to conditions: read-out: inhibition of the binding between mTOR(CD) and mLST8 proteins. As for the experimental part:
mLST8 binds to the mTOR C-terminal domain (mTOR(CD), a.a. 2179-2549). After binding to mTOR, mLST8 interacts with mSin1 and Rictor to complete the formation of the mTORC2 complex, serving as a scaffold. In order to evaluate the inhibitory activity of the compounds synthesized in Examples 1 to 70 on the binding between mLST8 protein and mTOR(CD) protein, the following mTOR(CD)-mLST8 binding assay was performed. Four types of compounds: HN2210, HN2213, HN2221 and HN2313 were used as the experimental target compounds.
Specifically, mTOR(CD) protein was overexpressed in E. coli, labeled with biotin, and then partially purified. mLST8 protein was overexpressed in insect Sf9 cells to obtain mLST8 extract. mTOR(CD)-biotin and mLST8 extract were incubated at 4° C. to induce binding between mTOR(CD)-biotin and mLST8 proteins, and then the mTOR(CD)-biotin and mLST8 complex were co-precipitated using avidin-agarose beads. The relative amounts of precipitated mTOR(CD)-biotin and mLST8 proteins were measured by Western blot analysis, as shown in FIG. 4. Four types of compounds were added during the incubation process of the mTOR(CD)-biotin and mLST8 extract.

For the compound `O=C1c2cc(F)c(N3CCOCC3)cc2COc2cc3c(cc21)OCO3` [HN2210, 8-(morpholino)-9-fluoro[2]benzoxepino[3,4-f]-1,3-benzodioxol-11(6H)-one], on mTORC2, the “selective inhibition of mTORC2” value is “selectively inhibit mTORC2” and the remaining activity at 40 µM is 43%. In addition, the “effect on S6K Thr389 phosphorylation” value on mTORC1 (40 μM) was “no effect”. In addition, the remaining activity at 40 µM at mTORC1 turned out to be 107%. Besides, the “increase in LC3-II” value in the test on LC3-II (40 μM) is on record as 22%. For the same compound, the activity at 40 µM in the test with LC3-II was 108%. Also, in test [1], the inhibition at 4 µM was determined as 24% and the inhibition at 40 µM came out at 36%.

For the compound `O=C1c2cc(F)c(NCc3ccccc3)cc2COc2cc3c(cc21)OCO3` [HN2213, 8-(benzylamino)-9-fluoro[2]benzoxepino[3,4-f]-1,3-benzodioxol-11(6H)-one], at mTORC2, the “selective inhibition of mTORC2” value is recorded as “selectively inhibit mTORC2” and the remaining activity at 40 µM was found to be 51%. Also, the “increase in S6K Thr389 phosphorylation” value at mTORC1 (40 μM) was 14%. In addition, at mTORC1, the remaining activity at 40 µM amounted to 114%. In addition, the “decrease in LC3-II” value in the test on LC3-II (40 μM) amounted to 33%. Moreover, in the test on LC3-II, the activity at 40 µM came out at 67%. For the same compound, in test [1], the inhibition at 4 µM was determined as 19% and the inhibition at 40 µM worked out at 30%.

For `O=C1c2cc(F)c(NC3CCCC3)cc2COc2cc3c(cc21)OCO3` [HN2313, 8-(cyclopentylamino)-9-fluoro-[1,3]dioxolo[4′,5′:4,5]benzo[1,2-b]benzo[e]oxepin-11(6H)-one], the values for the remaining activity at 40 µM on mTORC2 and at mTORC1 were 80% and 54%, respectively. In addition, the inhibition at 40 µM was over 20% at mTORC2 (HeLa, 9 h, read-out: reduction in Akt Ser473 phosphorylation compared to the control group) and 34% in test [1]. Besides, the “increase in LC3-II” value with LC3-II (40 μM) was 62%. For the same compound, in the test with LC3-II, the activity at 40 µM amounted to 162%.
